{"source": "patent US11395803B2", "about": "“Composition for controlled release of physiologically active substances and process for its preparation” (BIOSCREEN TECHNOLOGIES S.R.L., priority 2017, dated 2022)", "key": {"[1]": {"assay": "Post-ruminal digestibility, in vitro (pharmaceutical dissolver, Boisen Test)", "description": "Whereas, the term “post-ruminal digestibility” of a substance means the percentage amount by weight of substance that is freed from the coating exclusively in the post-ruminal tract, dissolving and so making it digestible or absorbable, with respect to the total amount by weight of the orally administered substance.\nThe experimental conditions of use were 39° C., 15 rpm, 8 hours presence in the solution with “ruminal” pH of about 6.8. • Daisy^II ANKOM: commercially available laboratory artificial rumen, for determining the degree of ruminal bypass. The experimental conditions of use were 39° C., 8 hours presence in ruminal conditions, buffer solution at “ruminal” pH with insertion of “ruminal inoculum” and re-creation of ruminal anaerobiosis according to a university procedure known to those skilled in the art. The pH normally tested in the quality control phase is 6.8. • Pharmaceutical dissolver for determining the degree of post-ruminal digestibility. The experimental conditions of use followed the procedure known to experts in the field as “Boisen Test” and, in particular, they were: • 39° C., 30 rpm, 2 h, buffer solution with “gastric” pH (2.0)+pepsin inoculum. • 39° C., 30 rpm, 4 h, buffer solution with “intestinal” pH (6.8)+pancreatine inoculum. • 39° C., 30 rpm, 18 h, buffer solution with “intestinal” pH (6.8)+lipase and bile extract inoculum. […]"}, "[2]": {"assay": "Total bioavailability, in vitro (combination of ruminal bypass and post-ruminal digestibility, Boisen method)"}, "[3]": {"assay": "Degree of ruminal bypass, in vitro (pharmaceutical dissolver / Daisy II ANKOM artificial rumen)", "experimental": "In the context of the present invention, the term “ruminal by-pass” indicates the percentage amount by weight of substance reaching the animal post-ruminal area, namely the stomach and the intestine, with respect to the total amount by weight of the orally administered substance.\nThe experimental conditions of use were 39° C., 15 rpm, 8 hours presence in the solution with “ruminal” pH of about 6.8. • Daisy^II ANKOM: commercially available laboratory artificial rumen, for determining the degree of ruminal bypass. The experimental conditions of use were 39° C., 8 hours presence in ruminal conditions, buffer solution at “ruminal” pH with insertion of “ruminal inoculum” and re-creation of ruminal anaerobiosis according to a university procedure known to those skilled in the art. The pH normally tested in the quality control phase is 6.8. • Pharmaceutical dissolver for determining the degree of post-ruminal digestibility. The experimental conditions of use followed the procedure known to experts in the field as “Boisen Test” and, in particular, they were: • 39° C., 30 rpm, 2 h, buffer solution with “gastric” pH (2.0)+pepsin inoculum. • 39° C., 30 rpm, 4 h, buffer solution with “intestinal” pH (6.8)+pancreatine inoculum. • 39° C., 30 rpm, 18 h, buffer solution with “intestinal” pH (6.8)+lipase and bile extract inoculum.\nThen the microgranules were subjected to an evaluation of the degree of ruminal by-pass, post-ruminal digestibility and total bioavailability using the Boisen method. For a complete description of the Boisen method, reference is made to the publication S. Boisen, J. A. Fernàndez “Prediction of total tract digestibility of energy feedstuffs and […] by in vitro analyses” Animal Feed Science Technology 68, 277-286, 1997."}, "[4]": {"details": "theoretical administration of 100 g of choline chloride"}, "[5]": {"details": "theoretical administration of 200 g of product"}}}
{"smiles": "C[N+](C)(C)CCO.[Cl-]", "note": "[Product A, choline chloride]", "values": [{"measurement": "Choline Chloride in faeces", "setting": "[1]; [4]", "result": 0, "unit": "g"}, {"measurement": "Choline Chloride in faeces", "setting": "[1]; [5]", "result": 0, "unit": "g"}, {"measurement": "Bioavailable Choline Chloride", "setting": "[2]; [4]", "result": 0, "unit": "g"}, {"measurement": "Bioavailable Choline Chloride", "setting": "[2]; [5]", "result": 0, "unit": "g"}, {"measurement": "Bypassed Choline Chloride", "setting": "[3]; [4]", "result": 0, "unit": "g"}, {"measurement": "Choline Chloride lost in the rumen in 8 h", "setting": "[3]; [4]", "result": 101, "unit": "g"}, {"measurement": "Bypassed Choline Chloride", "setting": "[3]; [5]", "result": 0, "unit": "g"}, {"measurement": "Choline Chloride lost in the rumen in 8 h", "setting": "[3]; [5]", "result": 198, "unit": "g"}]}
